System: CD3-activated human T cells containing PD-1-positive cells
Experiment: Flow cytometry binding to CD3-activated human T cells
Assay type: cell-based
Conditions: primary antibody final concentration 20 g/mL as printed, Alexa Fluor 488 anti-human IgG secondary
Protocol: The cells used were CD3-activated human T cells containing HER2-positive SKBR-3 cells, EGFR-positive A-431 cells, and PD-1-positive cells.
200,000 cells cultured in D-MEM medium (Thermo Fisher Scientific, Inc.) supplemented with 10% FBS (Thermo Fisher Scientific, Inc.) were collected, and 20 μL of PBS containing Human TruStain FcX (Biolegend) was added, followed by blocking of Fc receptors on ice for 10 minutes. The primary antibody reaction was performed by adding the above-described antibodies as primary antibodies to a cell staining buffer (PBS containing 1% FBS) to a final concentration of 20 g/mL, adding 20 μL of the mixtures to the cells, and incubating them for 20 minutes on ice. The cells after the primary antibody reaction were washed twice with the cell staining buffer. The second antibody reaction was performed by adding 40 μL of Goat anti-Human IgG (H+L) Cross-Adsorbed Secondary Antibody, Alexa Fluor™488 (Thermo Fisher Scientific, Inc.) diluted with the cell staining buffer to 10 g/mL as the second antibody to the cells, and incubating the cells on ice for 20 minutes. The cells were washed twice with the cell staining buffer, and then subjected to analysis using Attune NxT Flow Cytometer (Thermo Fisher Scientific, Inc.).

**Q.** With pembrolizumab as the substance, how does the “cells in which fluorescence was observed (positive rate), CD3-activated human T cells” value read?
**A.** about 23%
